{"source": "patent US20130210786A1", "about": "“TREATMENT OF L-DOPA, DOPAMINE AGONIST AND/OR DOPAMINE ENHANCER INDUCED DISORDERS” (priority 2010, published 2013)", "key": {"MPTP-lesioned macaques [1]": {"test_system": "MPTP-lesioned macaques", "experiment": "L-DOPA induced dyskinesia (LID) in MPTP-lesioned macaques, monkey dyskinesia rating scale", "type": "in vivo, Macaca fascicularis", "details": "group 1 (L-DOPA+vehicle); challenge with L-DOPA 12, 20, 30 or 40 mg/kg p.o.", "method": "Ten female cynomolgus monkeys (macaques) (Macaca fascicularis, 3.0-4.5 kg, 4-6 years old) were acclimatised to the experimental setting and procedures for 3 months and baseline behaviour was assessed in all animals. The macaques received MPTP (0.2 mg/kg/day, s.c.) until moderate-marked, stable, parkinsonian symptoms developed.\nFollowing stabilisation of parkinsonian disability, the macaques were administered L-DOPA (Madopar, 20 mg/kg b.i.d., p.o.) for 19 weeks before being administered L-DOPA+vehicle (hydroxypropylmethylcellulose, HPMC, 0.5% w/v containing Tween 80, 0.2% v/v, group 1, n=5) or L-DOPA+smilagenin (20 mg/kg/day, p.o., group 2, n=5) for a further 18 weeks. Smilagenin was then washed out for 10 weeks and all the macaques received only L-DOPA twice daily over this 10 week period.\nFollowing the 10 week washout, the macaques were challenged with L-DOPA (6, 12, 20, 30 or 40 mg/kg, p.o.) or vehicle and the level of dyskinesia over the subsequent 6 h period was assessed by a neurologist blinded to treatment using a monkey dyskinesia rating scale. […] Each macaque received a challenge once every 3 days and received every challenge (vehicle and L-DOPA, 6, 12, 20, 30 or 40 mg/kg) in a randomised order over the course of the experiment. On the days between challenges, the macaques received L-DOPA (20 mg/kg, b.i.d., p.o.) as normal.\nThe MPTP-lesioned and L-DOPA treated macaques used in this experiment provide an accepted model for L-DOPA-induced dyskinesia."}, "MPTP-lesioned macaques [2]": {"test_system": "MPTP-lesioned macaques", "experiment": "On-time (time without bradykinesia) in MPTP-lesioned macaques after L-DOPA challenge", "type": "in vivo, Macaca fascicularis", "details": "both groups; L-DOPA challenge 6-40 mg/kg p.o.", "experimental": "Analysis was performed using a two-way ANOVA with group and L-DOPA dose as factors."}}, "data": [{"smiles": "N[C@@H](Cc1ccc(O)c(O)c1)C(=O)O", "note": "[L-DOPA, L-3,4-dihydroxyphenylalanine]", "values": [{"measurement": "Dyskinesia following challenge with L-DOPA", "setting": "MPTP-lesioned macaques [1]", "value": "dose-dependent dyskinesia up to the 30 mg/kg dose"}, {"measurement": "Effect of L-DOPA on amount of on-time", "setting": "MPTP-lesioned macaques [2]", "value": "increased the amount of on-time"}]}]}
